Results taken from the METLIN SMRT retention time set (Domingo-Almenara et al. 2019).

Test: gradient 5% acetonitrile 3 min, to 50% in 2 min, to 85% in 15 min, held 3 min, 100 µL/min
Conditions: column: Zorbax Extend-C18 2.1 x 50 mm; eluents: water / acetonitrile, 0.1% formic acid
In short: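 Standards, all pure, were combined into mixtures of ~100 molecules and run at 100 μL/min on a Zorbax Extend-C18 column (2.1 × 50 mm, 1.8 μm) with water and acetonitrile, each containing 0.1% formic acid. A coupled quadrupole time-of-flight mass spectrometer operated in positive and negative ionization mode. Retention time values come from computationally picked adduct peaks, each inspected manually.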

RP-LC retention time [s]	SMILES
746	Cc1ccc2nc(NC3=NCN(CCc4cccs4)CN3)nc(C)c2c1
955	Cc1ccc2[nH]cc(CCNC(=O)COc3ccc(Cl)cc3)c2c1
605	COc1ccc(CCn2ccc3nc(N4CCN(C)CC4)ncc3c2=O)cc1OC
566	CCN(CC)CCNCc1ccc(-c2ccc(OC)c(Cl)c2)o1
580	OC(COCc1ccc(Cl)cc1)CN1CCCCC1 (configuration not stated)
803	COc1ccc(-c2nnc(-c3cc(S(=O)(=O)Nc4cccnc4)ccc3Cl)o2)cc1
904	Cn1c(=O)c(N2CCC(NC(=O)Nc3ccc(Cl)cc3)CC2)nc2ccccc21
909	O=C(Cn1ccc2ccc(N3CCOCC3)nc21)NCc1cccc(Cl)c1
1080	COc1cccc(NS(=O)(=O)c2c(C)nn(-c3ccc(-c4ccc(C)cc4)nn3)c2C)c1
815	Cc1nc(Cn2cccc2C(=O)Nc2ccc(F)cc2)no1
666	COc1ccc(CNC(=O)COc2ccc(NC(=O)C3CC3)cn2)cc1OC
797	COc1ccc(-c2cn3ccn(-c4ccc(C)cc4C)c(=O)c3n2)cc1OC
603	COc1ccc(C(CC(=O)NCCN2CCOCC2)N2Cc3ccccc3C2=O)cc1OC (configuration not stated)
700	COc1cc(-c2nc3ncccn3c2Nc2cccc(C(F)(F)F)c2)ccc1O
730	Cc1ccc(C)c(NC(=O)Cn2nc3c(N4CCCCCC4)nccn3c2=O)c1
660	COc1cccc(CCC(=O)NC(C)C(=O)Nc2nc3ccccc3[nH]2)c1 (configuration not stated)
999	COc1ccc(-c2nc(-c3cn(-c4cccc(F)c4)nn3)no2)c(OC)c1

RP-LC retention time [s]	SMILES
812	O=C(Nc1ccccc1)C(=O)c1ccc[nH]1
751	CCS(=O)(=O)N1CCCN(c2ccc(=O)n(-c3ccc(C)cc3)n2)CC1
907	CCc1cccc(C)c1Nc1c(-c2ccccc2O)nc2ncccn12
1140	O=C(NCCc1ccccc1)c1cc2sccc2n1Cc1ccc(F)cc1
1040	Cc1ccc(C)c(S(=O)(=O)N2CCc3c(c(-c4nnc(-c5ccc(F)cc5)o4)nn3C)C2)c1
960	CCCCNC(=O)C1Cc2ccccc2CN1S(=O)(=O)c1ccccc1 (configuration not stated)
787	Cc1ccc(NC(=O)C2CC(=O)N(c3ccc4c(c3)CCN4C(=O)C3CC3)C2)c(F)c1 (configuration not stated)
763	COCCn1c(C2CCN(S(=O)(=O)c3ccc(F)cc3)C2)nc2cccnc21 (configuration not stated)
554	Cc1ccc(NC(=O)N2CCC3(C2)c2nc[nH]c2CCN3C)cc1 (configuration not stated)
916	CC1Oc2ccc(S(=O)(=O)N3CCC(C(=O)Nc4ccc(C(C)C)cc4)CC3)cc2NC1=O (configuration not stated)
1090	CCn1c(=O)c2ccccc2n(Cc2nc(-c3ccc(Cl)cc3)no2)c1=O
626	Cn1c(=O)c2c(C(=O)NCC3CCN(Cc4ccc(Cl)cc4)CC3)cc(=O)n(C)c2n(C)c1=O
807	COc1ccc(CN2N=C(C(=O)N3CCOCC3)S(=O)(=O)c3ccccc32)cc1F
919	O=C(CN1C(=O)CCCc2cc(S(=O)(=O)N3CCCCCC3)ccc21)NCc1ccc(F)cc1
906	COc1ccc(-c2nsc(SCC(=O)Nc3ccc4c(c3)OCCO4)n2)cc1
983	Cc1noc(-c2ccc(NC(=O)C3c4ccccc4Oc4ccccc43)cc2)n1
657	O=C(Nc1cccc(Cl)c1)c1nnc(COCC(=O)N2CCN(c3ccccn3)CC2)s1

The next lines start with the molecule.

SMILES	RP-LC retention time [s]
O=c1c2sccc2n(Cc2nc(-c3ccc(F)cc3)no2)c(=O)n1-c1ccc(F)cc1	987
CCn1cc(CCN2CCC(C(=O)N3CCCCC3)CC2)c2cccnc21	587
O=C(NCc1cccs1)C(=O)NCC1(c2cccs2)CC1	860
CC1CCn2c(nc3cc(C(=O)N4CCN(c5ncccn5)CC4)ccc32)C1 (configuration not stated)	593
CC(=O)Nc1ccc(Br)cc1C(=O)c1ccccc1	840
Cc1cccc(S(=O)(=O)N2CCC(c3noc(-c4cccc(F)c4)n3)CC2)c1	1110
CCn1c(=O)sc2cc(S(=O)(=O)N3CCC(C(=O)Nc4ccccc4F)CC3)ccc21	899
CS(=O)(=O)N1CC(F)(F)C[C@H]1c1nc(-c2ccncc2)no1	693
COc1cccc(CCC(=O)N2CCN(c3nc(CN4CCC(C)CC4)cs3)CC2)c1	681
O=c1[nH]cc(S(=O)(=O)N2CCCCC2)c(=O)[nH]1	604
O=C(Nc1ncc([N+](=O)[O-])s1)c1c2c(nn1C1CCS(=O)(=O)C1)CCC2 (configuration not stated)	792
Fc1ccc(C2Cn3nnc(-c4nc(-c5ccccc5)no4)c3CO2)cc1 (configuration not stated)	1120
CNC(=O)Nc1ccc(-c2nc(N3CC4CCC(C3)O4)c3cnn(C4CCC5(CC4)OCCO5)c3n2)cc1	794
CC(NC(=O)c1csc(-c2ccc(N3CCCC3)nc2)n1)c1ccccn1 (configuration not stated)	573
COc1ccc(-c2noc(-c3ccc(N4CCN(c5ccc(OC)cc5)CC4)nc3)n2)cc1	1240
CCc1ccc(-c2csc(NC(=O)C3CCCO3)n2)cc1 (configuration not stated)	1020
CN(C)CCN(C)CCc1ccc(Cl)c(Cl)c1	639

SMILES	RP-LC retention time [s]
CN(C(=O)C1CCN(S(=O)(=O)c2cc(C(=O)N3CCCCCC3)cs2)CC1)C1CCCCC1	975
CN(C1CCc2nn(C)c(=O)n2CC1)S(=O)(=O)c1cccc(C#N)c1 (configuration not stated)	667
CN(C)[C@@H]1CN(C(=O)c2n[nH]c3ccccc23)C[C@H]1CO	552
CCCN1C(=O)C(CC(=O)NCCOC)Sc2ncccc21 (configuration not stated)	632
Cn1c(CNC(=O)C2CCC2)nc2c1CN(S(=O)(=O)c1ccc(Cl)s1)CC2	666
O=C(Nc1nc(-c2cc(Cl)sc2Cl)cs1)c1ccc([N+](=O)[O-])s1	1310
Cc1occc1C(=O)NC1CCc2nn(CC3CC3)c(=O)n2CC1 (configuration not stated)	636
O=C(Cc1c(F)cccc1Cl)N1CCN(Cc2ccsc2)CC1	570
COc1ccc(-c2noc(-c3nnn4c3COC(c3ccc(C)cc3C)C4)n2)c(OC)c1 (configuration not stated)	1170
O=c1c2cc(-c3ccccc3)nn2ccn1Cc1noc(CN2CCCCC2)n1	651
CCC(=O)N1CCCC(C(=O)NC2CC2)C1 (configuration not stated)	567
Cc1nc(N2CCN(c3ccccn3)CC2)nc2c1C(=O)CC(C)(C)C2	677
COc1cccc(-c2nc3sc(C(=O)N(C)C)c(C)n3c2NC(C)(C)C)c1	773
CN(C)CCn1nnc2cc(-c3noc(-c4cccc(C#N)c4)n3)ccc21	633
Cc1ccc(C(=O)NC2CCN(c3nnc4ccccn34)CC2)cc1N1CCCC1=O	596
CCOC(=O)C1=C(C)NC(C)=C(C(=O)OCC)C1c1ccncc1	564
